According to patent US20100249017A1, “USE OF CNP-22, ALONE OR IN COMBINATION WITH PHYSALEMIN, AS A THERAPEUTIC AGENT” (priority 2007, published 2010):
Square brackets hold non-standard residues; d marks the D form. Ends that are not written are not given here. pGlu = O=C1CC[C@@H](C(=O)O)N1

Assays:
[1] = test system: hepatitis B virus (HBV) ayw strain; assay: HBV experimental assay system, secreted HBV DNA by TaqMan PCR; assay type: cell-based; conditions: 10 micrograms per ml; HepG2-2.2.15 cells; six days
[2] = test system: spleen cells of Ovalbumin-immunized Balb/c mice; assay: Th1/Th2 cytokine profiling assay; assay type: cell-based, mouse; conditions: 10 micrograms per ml; Ovalbumin restimulation; 72 hours
Description: The Balb/c mice (originated in 1923, it is a popular strain and is used in many different research disciplines. Also classified as an inbred from the production of 20 or more successive brother-sister matings, the Balb/c mouse is albino and small in size) were immunized on Days 1, 15, and 29 with Ovalbumin (Ovalbumin is the main protein found in egg white, commonly used to stimulate an immunological reaction in test animals) in PBS (5 micrograms/injection). On day 50, spleens of the mice were harvested (3 weeks after last boost with Ovalbumin). Cells were cultured (2×10^5/well in triplicate) and incubated with culture medium or test peptides—10 micrograms per ml—for 30 min. Thereafter, additional Ovalbumin was added to the cells at 10 micrograms/ml for in vitro restimulation of the cells. 72 hours later, cell supernatants were harvested and assayed using the Becton Dickinson Mouse Th1/Th2 Cytokine CBA Kit.

HUVEC = assay: Endothelial tube formation assay; assay type: cell-based, human; conditions: 10 micrograms per ml, 20 hours
Description: Positive control was vehicle only. […] Raw data were expressed as average tubule lenghs in pixels±standard deviation.

RAW 264.7 cells = assay: Phagocytosis assay; conditions: 10 micrograms per ml, Fluorescein-labeled Escherichia coli
HCMV strain AD169 = assay: HCMV plaque formation assay in MRC-5 cells; conditions: 10 micrograms per ml, 7-10 days
Description: Cells were split twic a week 1:2.
Ganciclovir was used as positive control.

[3] = test system: Primary Human endothelial cells (HUVEC); assay: Endothelial cell migration assay; assay type: cell-based; conditions: 10 micrograms per ml, 22 hours
Procedure: Thereafter, designated concentration of testing peptides—10 micrograms per ml—was added in duplicate wells.

Row | Substance | inhibition of HBV replication as compared to the virus control infection [1] | IFNγ spleen cells; TH1 response (% of control) [2] | IL-2 spleen cells (% of control) [2] | IL-4 spleen cells; TH2 response (% of control) [2] | IL-5 spleen cells; TH2 response (% of control) [2] | TNF-a spleen cells; TH1 response (% of control) [2] | inhibition of the tube formation of human endothelial cells (HUVEC) [%] | induction of phagocytosis as compared to the virus control experiment (RAW 264.7 cells) | inhibition of HCMV plaque formation as compared to the virus control experiment (HCMV strain AD169) | induction of the migration of human endothelial cells [3] [%]
1 | Gly-Leu-Ser-Lys-Gly-Cys-Phe-Gly-Leu-Lys-Leu-Asp-Arg-Ile-Gly-Ser-Met-Ser-Gly-Leu-Gly-Cys-OH (GLSKGCFGLKLDRIGSMSGLGC-OH; cysteine pairing not given here) [peptide 1] | 10.1% | 140.2 % of control | 52.2 % of control | 0.0 % of control | 56.3 % of control | 111.8 % of control | 22 | 42.9% | did not show any inhibition | 
2 | Pyr-Ala-Asp-Pro-Asn-Lys-Phe-Tyr-Gly-Leu-Met-NH2 ([pGlu]ADPNKFYGLM-NH2; SMILES CSCC[C@H](NC(=O)[C@H](CC(C)C)NC(=O)CNC(=O)[C@H](Cc1ccc(O)cc1)NC(=O)[C@H](Cc1ccccc1)NC(=O)[C@H](CCCCN)NC(=O)[C@H](CC(N)=O)NC(=O)[C@@H]1CCCN1C(=O)[C@H](CC(=O)O)NC(=O)[C@H](C)NC(=O)[C@@H]1CCC(=O)N1)C(N)=O) [peptide 2] | no effect | 74.2 % of control | 0.0 % of control | 0.0 % of control | 53.0 % of control | 85.7 % of control | 6 | did not induce phagocytosis | did not show any inhibition | 15
